Experimental data as given in article PMC4521925, “17β-Hydroxysteroid Dehydrogenase Type 2 Inhibition: Discovery of Selective and Metabolically Stable Compounds Inhibiting Both the Human Enzyme and Its Murine Ortholog” (PLoS ONE, 2015).

Tests used:
m17β-HSD2 = molecular target: T1, m17β-HSD2 (Mus musculus, UniProt P51658); assay: Inhibition of m17β-HSD2 in cell-free assay; format: biochemical; details: for % inh. at 1 μM m17β-HSD2: mouse liver microsomal fraction, substrate E2 [500 nM], cofactor NAD+ [1500 μM], Table 1; for inhibition at 1 µM: read-out: % inh. at 1 μM m17β-HSD2
T1 construct: The microsomal fraction (m17β-HSD2) was obtained from mouse liver as described for h17β-HSD2; tissue Pharmacelsus GmbH (mouse livers); host or cells: mouse liver, microsomal fraction
T1 sequence (P51658 1-381): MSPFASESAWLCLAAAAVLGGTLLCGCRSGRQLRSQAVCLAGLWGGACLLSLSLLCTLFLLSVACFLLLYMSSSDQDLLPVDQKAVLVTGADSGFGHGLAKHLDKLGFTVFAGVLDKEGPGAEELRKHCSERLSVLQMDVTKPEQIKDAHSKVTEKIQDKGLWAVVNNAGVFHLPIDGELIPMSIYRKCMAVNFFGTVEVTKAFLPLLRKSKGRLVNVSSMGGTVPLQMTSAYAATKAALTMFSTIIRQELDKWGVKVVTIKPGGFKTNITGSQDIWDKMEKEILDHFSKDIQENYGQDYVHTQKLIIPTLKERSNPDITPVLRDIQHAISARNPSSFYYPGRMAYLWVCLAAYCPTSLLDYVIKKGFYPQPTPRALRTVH
Description: (§1) h17β-HSD2, h17β-HSD1, m17β-HSD2 and m17β-HSD1 cell-free assays were performed similarly, by incubating enzyme, tritiated substrate, cofactor and inhibitor, according to described procedures.
The microsomal fraction (m17β-HSD2) was obtained from mouse liver as described for h17β-HSD2. Inhibitory activities were evaluated by a method identical to the one described for the human enzyme.
(§2) Inhibitory activities were evaluated following an established method with minor modifications. Briefly, the enzyme preparation was incubated with NAD^+ [1500 μM] in the presence of potential inhibitors at 37C in a phosphate buffer (50 mM) supplemented with 20% of glycerol and EDTA 1mM. Inhibitor stock solutions were prepared in DMSO. Final concentration of DMSO was adjusted to 1% in all samples. […] After 20 min, the incubation was stopped with HgCl2 and the mixture was extracted with ether. After evaporation, the steroids were dissolved in acetonitrile/water (45:55). […] Detection and quantification of the steroids were performed using a radioflow detector (Berthold Technologies, Bad Wildbad). […] Each value was calculated from at least two independent experiments.

h17β-HSD1 = molecular target: T2, h17β-HSD1 (Homo sapiens, UniProt P14061); assay: Inhibition of h17β-HSD1 in cell-free assay; format: biochemical; details: human placental cytosolic fraction, substrate E1 [500 nM], cofactor NADH [500 μM]; for inhibition at 1 µM: read-out: % inh. at 1 μM h17β-HSD1
T2 construct: h17β-HSD1 was obtained after precipitation with ammonium sulfate from the cytosolic fraction; from tissue; host or cells: human placenta, cytosolic fraction
T2 sequence (P14061 1-328): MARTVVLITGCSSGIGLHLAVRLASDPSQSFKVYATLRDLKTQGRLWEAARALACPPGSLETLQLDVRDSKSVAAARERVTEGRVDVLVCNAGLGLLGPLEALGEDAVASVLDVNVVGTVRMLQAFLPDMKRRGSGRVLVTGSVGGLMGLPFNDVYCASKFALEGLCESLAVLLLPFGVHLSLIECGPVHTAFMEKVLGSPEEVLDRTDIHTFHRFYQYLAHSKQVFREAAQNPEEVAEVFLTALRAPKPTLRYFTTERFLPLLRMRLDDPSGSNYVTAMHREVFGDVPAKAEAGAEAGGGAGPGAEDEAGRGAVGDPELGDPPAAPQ
Description: as §1
(§3) Cytosolic (h17β-HSD1) and microsomal (h17β-HSD2) fractions were obtained from human placenta according to previously described procedures. Fresh tissue was homogenized and the enzymes were separated from the mitochondria, cell membrane. Nucleus and other rests by fractional centrifugation at 1000 g, 10.000 g and 150.000 g. The pellet fraction containing the microsomal h17β-HSD2 was used for the determination of h17β-HSD2 inhibition, while h17β-HSD1 was obtained after precipitation with ammonium sulfate from the cytosolic fraction for use of testing of h17β-HSD1 inhibition. Aliquots containing h17β-HSD1 or h17β-HSD2 were stored frozen.
(§4) The 17β-HSD1 inhibition assay was performed similarly to the h17β-HSD2 test. The human cytosolic enzyme was incubated with NADH [500 μM] while the mouse recombinant enzyme was reacted with NADPH [500 μM].Test compound and a mixture of unlabelled- and [^3H]-E1 (final concentration: 500 nM, 0.15 μCi) were added and mixed for 10 min at 37°C. Further treatment of the samples and HPLC separation was carried out as mentioned above for h17β-HSD2.

h17β-HSD2 = molecular target: T3, h17β-HSD2 (Homo sapiens, UniProt P37059); assay: Inhibition of h17β-HSD2 in cell-free assay; format: biochemical; design: from tissue; host or cells: human placenta, microsomal fraction; details: for inhibition at 1 µM: read-out: % inh. at 1 μM h17β-HSD2; for s.f. (selectivity factor) = IC50(17β-HSD1)/IC50(17β-HSD2): human enzymes, cell-free
T3 sequence (P37059 1-387): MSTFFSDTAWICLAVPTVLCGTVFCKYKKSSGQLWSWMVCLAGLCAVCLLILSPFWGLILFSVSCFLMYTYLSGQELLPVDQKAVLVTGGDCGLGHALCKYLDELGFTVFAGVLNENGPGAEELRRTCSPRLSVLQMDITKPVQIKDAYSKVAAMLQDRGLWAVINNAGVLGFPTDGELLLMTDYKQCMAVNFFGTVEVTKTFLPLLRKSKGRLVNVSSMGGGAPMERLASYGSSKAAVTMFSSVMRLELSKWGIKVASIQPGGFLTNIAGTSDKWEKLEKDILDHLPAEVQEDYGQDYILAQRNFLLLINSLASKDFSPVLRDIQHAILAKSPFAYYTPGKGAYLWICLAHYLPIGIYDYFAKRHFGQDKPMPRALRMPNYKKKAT
Description: as §1, §3, §2

m17β-HSD1 = molecular target: T4, m17β-HSD1 (Mus musculus, UniProt P51656); assay: Inhibition of m17β-HSD1 in cell-free assay; format: biochemical; details: recombinant m17β-HSD1, substrate E1 [500 nM], NADPH [500 μM]
T4 construct: host or cells: HEK 293 cells, transient transfection, 1000 g supernatant of the lysate
T4 sequence (P51656 1-344): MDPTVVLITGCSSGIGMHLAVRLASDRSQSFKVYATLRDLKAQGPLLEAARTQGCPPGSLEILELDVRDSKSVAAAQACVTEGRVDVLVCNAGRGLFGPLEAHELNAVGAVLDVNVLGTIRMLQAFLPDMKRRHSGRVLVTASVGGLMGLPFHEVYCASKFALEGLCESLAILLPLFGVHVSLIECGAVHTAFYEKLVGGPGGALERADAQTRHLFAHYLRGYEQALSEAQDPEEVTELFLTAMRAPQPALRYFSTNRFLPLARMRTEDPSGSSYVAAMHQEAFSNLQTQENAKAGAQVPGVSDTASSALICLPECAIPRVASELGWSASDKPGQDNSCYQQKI
Description: as §1
Recombinant m17β-HSD1 enzyme was produced by transfection of HEK 293 cells with a m17β-HSD1 expression plasmid (coding sequence of NM_010475 in pCMV6Entry vector, OriGene Technologies, Inc.) according to a described procedure. 48 hours after transfection cells were homogenized by sonication (3 x 10 s) in a buffer containing saccharose (40 mMTris, 250 mM saccharose, 5 mM EDTA, 7 mM DTT, 1 mM PMSF, pH 7,5). Cell lysate was centrifuged (1000 g, 15 min, 4°C) and 20% glycerol was added to the supernatant before aliquots were frozen and stored at -70°C.
as §4

% inh. at 1 μM m17β-HSD2 (m17β-HSD2)	inhibition at 1 µM (m17β-HSD2)	inhibition at 1 µM (h17β-HSD1)	inhibition at 1 µM (h17β-HSD2)	SMILES	other results
42%				Cc1cccc(-c2ccc(C(=O)N(C)c3cccc(C)c3)s2)c1 [Compound 1b]	
19%				COc1cccc(N(C)C(=O)c2ccc(-c3ccccc3OC)s2)c1 [Compound 1d]	
18%				CN(C(=O)c1ccc(-c2ccccc2O)s1)c1cccc(O)c1 [Compound 1f]	
	50%			Cc1cccc(-c2ccc(C(=O)N(C)c3cccc(C)c3)cc2)c1 [Compound 3a]	
22%				CN(Cc1cccc(O)c1)C(=O)c1cccc(-c2ccc(O)cc2)c1 [Compound 4f]	
	48%	22%	51%	COc1cccc(N(C)C(=O)c2ccc(-c3ccccc3)cc2)c1 [Compound 8a, N-(3-methoxyphenyl)-N-methyl-[1,1'-biphenyl]-4-carboxamide]	melting point: 102 to 104 °C
	33%	< 10%	50%	COc1cccc(N(C)C(=O)c2ccc(-c3ccccc3OC)cc2)c1 [Compound 9a, 2'-Methoxy-N-(3-methoxyphenyl)-N-methyl-[1,1'-biphenyl]-4-carboxamide]	
	58%	< 10%	27%	COc1ccc(N(C)C(=O)c2ccc(-c3cccc(OC)c3)cc2)cc1 [Compound 11a, 3'-Methoxy-N-(4-methoxyphenyl)-N-methyl-[1,1'-biphenyl]-4-carboxamide]	
	62%	< 10%	19%	COc1ccc(-c2ccc(C(=O)N(C)c3ccc(OC)cc3)cc2)cc1 [Compound 12a, 4'-Methoxy-N-(4-methoxyphenyl)-N-methyl-[1,1'-biphenyl]-4-carboxamide]	melting point: 129 to 132 °C
		< 10%	31%	COc1cccc(N(C)C(=O)c2ccc(-c3ccc(F)c(F)c3)cc2)c1 [Compound 18a, 3',4'-Difluoro-N-(3-methoxyphenyl)-N-methyl-[1,1'-biphenyl]-4-carboxamide]	
	56%	< 10%	51%	COc1cccc(N(C)C(=O)c2ccc(-c3ccc4c(c3)OCO4)cc2)c1 [Compound 22a, 4-(Benzo[d][1, 3]dioxol-5-yl)-N-(3-methoxyphenyl)-N-methylbenzamide]	melting point: 139 to 141 °C

The remaining lines, values behind:

SMILES	% inh. at 1 μM m17β-HSD2 (m17β-HSD2)	inhibition at 1 µM (m17β-HSD2)	inhibition at 1 µM (h17β-HSD1)	inhibition at 1 µM (h17β-HSD2)	other results
COc1cccc(N(C)C(=O)c2ccc(-c3cccc(F)c3)s2)c1 [Compound 1h]	n.i. (n.i.: no inhibition, i.e., inhibition ≤10%)				
COc1cccc(N(C)C(=O)c2ccc(-c3ccc(C#N)cc3)s2)c1 [Compound 1i]	n.i. (n.i.: no inhibition, i.e., inhibition ≤10%)				
COc1ccc(-c2cccc(C(=O)N(C)c3cccc(OC)c3)c2)cc1 [Compound 4b]	11%				
CN(C(=O)c1cccc(-c2cccc(O)c2)c1)c1cccc(O)c1 [Compound 4c]	n.i. (n.i.: no inhibition, i.e., inhibition ≤10%)				
COc1cccc(CN(C)C(=O)c2cccc(-c3cccc(OC)c3)c2)c1 [Compound 4d]	n.i. (n.i.: no inhibition, i.e., inhibition ≤10%)				
CN(C(=O)c1ccc(-c2cccc(O)c2)cc1)c1cccc(O)c1 [Compound 7, 3'-Hydroxy-N-(3-hydroxyphenyl)-N-methyl-[1,1'-biphenyl]-4-carboxamide]		42%	15%	36%	melting point: 168 to 171 °C
COc1cccc(N(C)C(=O)c2ccc(-c3cccc(F)c3)cc2)c1 [Compound 13a, 3'-Fluoro-N-(3-methoxyphenyl)-N-methyl-[1,1'-biphenyl]-4-carboxamide]		57%			IC50 (h17β-HSD1): 8 µM; IC50 (h17β-HSD2): 1 µM; s.f. (selectivity factor) = IC50(17β-HSD1)/IC50(17β-HSD2) (h17β-HSD2): 8; melting point: 97 to 100 °C
COc1cccc(N(C)C(=O)c2ccc(-c3cccc(N(C)C)c3)cc2)c1 [Compound 15a, 3'-(Dimethylamino)-N-(3-methoxyphenyl)-N-methyl-[1,1'-biphenyl]-4-carboxamide]		67%			IC50 (h17β-HSD1): 5 µM; IC50 (h17β-HSD2): 0.65 µM; s.f. (selectivity factor) = IC50(17β-HSD1)/IC50(17β-HSD2) (h17β-HSD2): 8; inhibition of m17β-HSD1 at 1 μM (m17β-HSD1): None of the tested compounds showed any inhibition
COc1cccc(N(C)C(=O)c2ccc(-c3ccc(OC)c(OC)c3)cc2)c1 [Compound 16a, 3',4'-Dimethoxy-N-(3-methoxyphenyl)-N-methyl-[1,1'-biphenyl]-4-carboxamide]		52%			IC50 (h17β-HSD1): 85.5 µM; IC50 (h17β-HSD2): 0.52 µM; s.f. (selectivity factor) = IC50(17β-HSD1)/IC50(17β-HSD2) (h17β-HSD2): 164; melting point: 153 to 156 °C
COc1cccc(C(=O)N(C)c2ccc(-c3cccc(OC)c3)cc2)c1 [Compound 24a, 3-Methoxy-N-(3'-methoxy-[1,1'-biphenyl]-4-yl)-N-methylbenzamide]			< 10%	11%	
